One test has as its target T1, full-length recombinant human NEK7 (Homo sapiens, UniProt Q8TDX7).
T1 construct: full-length recombinant human NEK7; GST (N); purchased SignalChem N09-10G; host or cells: Sf9 insect cells (baculovirus)
In words: NEK7 enzymatic assay ([33P]-ATP, casein substrate). The test is classed as biochemical. To be noted: Table 2e; recombinant human NEK7, casein substrate. In a few lines: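 Serially diluted compounds (10 μM down to 0.5 nM, 3-fold) were preincubated 20 min at room temperature with N-terminal GST-NEK7 from Sf9 cells and casein in pH 7.5 Hepes/MgCl2/EGTA/Brij35/DTT buffer containing 1% DMSO. [33P]-ATP then started a 2 h room-temperature reaction, stopped by spotting onto P81 paper. IC50 came from percent activity remaining versus vehicle.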
T1 sequence (Q8TDX7 whole entry): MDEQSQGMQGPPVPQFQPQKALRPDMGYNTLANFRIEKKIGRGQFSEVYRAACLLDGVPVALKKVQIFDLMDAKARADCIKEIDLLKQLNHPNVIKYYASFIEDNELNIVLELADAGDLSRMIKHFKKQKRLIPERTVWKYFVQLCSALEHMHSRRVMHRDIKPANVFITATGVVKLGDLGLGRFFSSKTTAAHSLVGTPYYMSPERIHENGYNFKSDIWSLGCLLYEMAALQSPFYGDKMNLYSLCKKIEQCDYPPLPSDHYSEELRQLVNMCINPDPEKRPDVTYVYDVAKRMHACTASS
Turning to `O=C(Nc1ccc(CN2CCOCC2)c(F)c1)Nc1ccc(Oc2ccnc3[nH]cc(Cl)c23)cc1F` [Ie-2, 1-(4-((3-chloro-1H-pyrrolo[2,3-b]pyridin-4-yl)oxy)-2-fluorophenyl)-3-(3-fluoro-4-(morpholinomethyl)phenyl)urea], the IC50 is above 1500 nM.

Turning to `Cc1cn(-c2cc(NC(=O)Nc3ccc(Oc4ccnc5[nH]cc(Cl)c45)cc3F)cc(C(F)(F)F)c2)cn1` [Ie-3, 1-(4-((3-Chloro-1H-pyrrolo[2,3-b]pyridin-4-yl)oxy)-2-fluorophenyl)-3-(3-(4-methyl-1H-1-imidazol-1-yl)-5-(TRIFLUOROMETHYL)phenyl)urea], the IC50 was 501 to 1500 nM.

On to `O=C(Nc1ccc(CN2CCOCC2)c(C(F)(F)F)c1)Nc1ccc(Oc2ccnc3[nH]cc(Cl)c23)cc1F` [Ie-4, 1-(4-((3-Chloro-1H-pyrrolo[2,3-b]pyridin-4-yl)oxy)-2-fluorophenyl)-3-(4-(morpholinomethyl)-3-(trifluoromethyl)phenyl)UR EA], for which the IC50 is above 1500 nM.

For the compound `CN1CCN(Cc2ccc(NC(=O)Nc3ccc(Oc4ccnc5[nH]cc(Cl)c45)cc3F)cc2F)CC1` [Ie-5, 1-(4-((3-chloro-1H-pyrrolo[2,3-b]pyridin-4-yl)oxy)-2-fluorophenyl)-3-(3-fluoro-4-((4-methylpiperazin-1-yl)methyl)phenyl)urea], the IC50 was above 1500 nM.

Take `CN1CCN(c2cc(NC(=O)Nc3ccc(Oc4ccnc5[nH]cc(Cl)c45)cc3F)cc(C(F)(F)F)c2)CC1` [Ie-6, 1-(4-((3-chloro-1H-pyrrolo[2,3-b]pyridin-4-yl)oxy)-2-fluorophenyl)-3-(3-(4-methylpiperazin-1-yl)-5-(trifluoromethyl)phenyl)urea]: the IC50 is above 1500 nM.

With `CN(C)Cc1ccc(NC(=O)Nc2ccc(Oc3ccnc4[nH]cc(Cl)c34)cc2F)cc1C(F)(F)F` [Ie-7, 1-(4-((3-chloro-1H-pyrrolo[2,3-b]pyridin-4-yl)oxy)-2-fluorophenyl)-3-(4-((dimethylamino)methyl)-3-(trifluoromethyl)phenyl)urea], the IC50 was above 1500 nM.

`CN(C)C1CN(Cc2ccc(NC(=O)Nc3ccc(Oc4ccnc5[nH]cc(Cl)c45)cc3F)cc2C(F)(F)F)C1` [Ie-8, 1-(4-((3-chloro-1H-pyrrolo[2,3-b]pyridin-4-yl)oxy)-2-fluorophenyl)-3-(4-((3-(dimethylamino)azetidin-1-yl)methyl)-3-(trifluoromethyl)phenyl)urea]: the IC50 was above 1500 nM.

Take `CC(C)N1CCN(Cc2ccc(NC(=O)Nc3ccc(Oc4ccnc5[nH]cc(Cl)c45)cc3F)cc2C(F)(F)F)CC1` [Ie-10, 1-(4-((3-chloro-1H-pyrrolo[2,3-b]pyridin-4-yl)oxy)-2-fluorophenyl)-3-(4-((4-isopropylpiperazin-1-yl)methyl)-3-(trifluoromethyl)phenyl)urea]: the IC50 lay in the range of 301 to 500 nM.

In the case of `O=C(Nc1ccc(CN2CCN(C3CC3)CC2)c(C(F)(F)F)c1)Nc1ccc(Oc2ccnc3[nH]cc(Cl)c23)cc1F` [Ie-11, 1-(4-((3-chloro-1H-pyrrolo[2,3-b]pyridin-4-yl)oxy)-2-fluorophenyl)-3-(4-((4-cyclopropylpiperazin-1-yl)methyl)-3-(trifluoromethyl)phenyl)urea], the IC50 was above 1500 nM.

`CN1CCN(Cc2ccc(NC(=O)Nc3ccc(Oc4ccnc5[nH]cc(Cl)c45)cc3F)cc2Cl)CC1` [Ie-12, 1-(4-((3-chloro-1H-pyrrolo[2,3-b]pyridin-4-yl)oxy)-2-fluorophenyl)-3-(3-chloro-4-((4-methylpiperazin-1-yl)methyl)phenyl)urea]: the IC50 is above 1500 nM.

Regarding `CC(c1ccc(NC(=O)Nc2ccc(Oc3ccnc4[nH]cc(Cl)c34)cc2F)cc1C(F)(F)F)N1CCN(C)CC1` (stereo not drawn) [Ie-13, 1-(4-((3-chloro-1H-pyrrolo[2,3-b]pyridin-4-yl)oxy)-2-fluorophenyl)-3-(4-(1-(4-methylpiperazin-1-yl)ethyl)-3-(trifluoromethyl)phenyl)urea], the IC50 was 501 to 1500 nM.

Still in this test, the particulars now being: Table 2d; recombinant human NEK7, casein substrate.
As to `Cc1cn(-c2ccc(NC(=O)Nc3ccc(-c4cn(C5CC5)c5ncnc(N)c45)cc3F)cc2C(F)(F)F)cn1` [Id-45, 1-(4-(4-amino-7-cyclopropyl-7H-pyrrolo[2,3-d]pyrimidin-5-yl)-2-fluorophenyl)-3-(4-(4-methyl-1H-imidazol-1-yl)-3-(trifluoromethyl)phenyl)urea], the IC50 fell in the range of 501 to 1500 nM.

Regarding `CN1CCC(Oc2ccc(NC(=O)Nc3ccc(-c4cn(C5CC5)c5ncnc(N)c45)cc3F)cc2C(F)(F)F)CC1` [Id-46, 1-(4-(4-amino-7-cyclopropyl-7H-pyrrolo[2,3-d]pyrimidin-5-yl)-2-fluorophenyl)-3-(4-((1-methylpiperidin-4-yl)oxy)-3-(trifluoromethyl)phenyl)urea], the IC50 is below 150 nM.

Take `Nc1ncnc2c1c(-c1ccc(NC(=O)Nc3ccc(CN4CCOCC4)c(F)c3)c(F)c1)nn2C1CC1` [Id-47, 1-(4-(4-amino-1-cyclopropyl-1H-pyrazolo[3,4-d]pyrimidin-3-yl)-2-fluorophenyl)-3-(3-fluoro-4-(morpholinomethyl)phenyl)urea]: the IC50 was above 1500 nM.

With `CN1CCN(Cc2ccc(NC(=O)Nc3ccc(-c4nn(C5CC5)c5ccnc(N)c45)cn3)cc2C(F)(F)F)CC1` [Id-50, 1-(5-(4-amino-1-cyclopropyl-1H-pyrazolo[4,3-c]pyridin-3-yl)pyridin-2-yl)-3-(4-((4-methylpiperazin-1-yl)methyl)-3-(trifluoromethyl)phenyl)urea], the IC50 fell in the range of 301 to 500 nM.

`CN1CCC(=Cc2ccc(NC(=O)Nc3ccc(-c4cn(C5CC5)c5ncnc(N)c45)cc3F)cc2C(F)(F)F)CC1` [Id-51, 1-(4-(4-amino-7-cyclopropyl-7H-pyrrolo[2,3-d]pyrimidin-5-yl)-2-fluorophenyl)-3-(4-((1-methylpiperidin-4-ylidene)methyl)-3-(trifluoromethyl)phenyl)urea]: the IC50 was in the range of 501 to 1500 nM.

Consider `COc1cc(CN2CCN(C)CC2)ccc1NC(=O)Nc1ccc(-c2cn(C3CC3)c3ncnc(N)c23)cc1F` [Id-52, 1-(4-(4-amino-7-cyclopropyl-7H-pyrrolo[2,3-d]pyrimidin-5-yl)-2-fluorophenyl)-3-(2-methoxy-4-((4-methylpiperazin-1-yl)methyl)phenyl)urea], for which the IC50 is above 1500 nM.

Consider `CN1CCN(Cc2ccc(NC(=O)Nc3ccc(-c4cn(C5CC5)c5ncnc(N)c45)cc3F)cc2C#N)CC1` [Id-53, 1-(4-(4-amino-7-cyclopropyl-7H-pyrrolo[2,3-d]pyrimidin-5-yl)-2-fluorophenyl)-3-(3-cyano-4-((4-methylpiperazin-1-yl)methyl)phenyl)urea], for which the IC50 is above 1500 nM.

As to `CCN1CCN(Cc2ccc(NC(=O)Nc3ccc(-c4cn(C5CC5)c5ncnc(N)c45)cc3Cl)cc2C(F)(F)F)CC1` [Id-54, 1-(4-(4-amino-7-cyclopropyl-7H-pyrrolo[2,3-d]pyrimidin-5-yl)-2-chlorophenyl)-3-(4-((4-ethylpiperazin-1-yl)methyl)-3-(trifluoromethyl)phenyl)urea], the IC50 is below 150 nM.

In the case of `Cc1cc(NC(=O)Nc2ccc(-c3nn(C4CC4)c4ccnc(N)c34)cc2F)ccc1N1CCOCC1` [Id-55, 1-(4-(4-amino-1-cyclopropyl-1H-pyrazolo[4,3-c]pyridin-3-yl)-2-fluorophenyl)-3-(3-methyl-4-morpholino-phenyl)urea], the IC50 was above 1500 nM.

In the case of `CN1CCN(Cc2ccc(NC(=O)Nc3ccc(-c4cn(C5CC5)c5ncnc(N)c45)cc3F)cc2)CC1` [Id-56], the IC50 is above 1500 nM.

As for `CCN1CCN(Cc2ccc(NC(=O)Nc3ccc(-c4cn(C5CC5)c5ncnc(N)c45)cc3F)cc2)CC1` [Id-57], the IC50 was above 1500 nM.

Consider `CN1CCN(Cc2ccc(NC(=O)Nc3ccc(-c4cn(C5CC5)c5ncnc(N)c45)cc3F)cc2C(F)F)CC1` [Id-58], for which the IC50 was above 1500 nM.

For `CCN1CCN(Cc2ccc(NC(=O)Nc3ccc(-c4cn(C5CC5)c5ncnc(N)c45)cc3F)cc2C(F)F)CC1` [Id-59], the IC50 is above 1500 nM.

Take `CN1CCC(Oc2ncc(NC(=O)Nc3ccc(-c4cn(C5CC5)c5ncnc(N)c45)cc3F)cc2C(F)(F)F)CC1` [Id-60]: the IC50 was above 1500 nM.

Regarding `Nc1ncnc2c1c(-c1ccc(NC(=O)Nc3ccc(CN4CCN(C5CC5)CC4)c(C(F)(F)F)c3)c(F)c1)cn2C1CC1` [Id-61], the IC50 lay in the range of 301 to 500 nM.

For `CC(C)N1CCN(Cc2ccc(NC(=O)Nc3ccc(-c4cn(C5CC5)c5ncnc(N)c45)cc3F)cc2C(F)(F)F)CC1` [Id-62], the IC50 was below 150 nM.

Take `CN1CC2CC1CN2Cc1ccc(NC(=O)Nc2ccc(-c3cn(C4CC4)c4ncnc(N)c34)cc2F)cc1C(F)(F)F` (stereo not drawn) [Id-63]: the IC50 was below 150 nM.

With `CN1CCN(Cc2ccc(NC(=O)Nc3ccc(-c4cn(C5CC5)c5ncnc(N)c45)cc3F)c(F)c2)CC1` [Id-64], the IC50 lay in the range of 501 to 1500 nM.

Take `Nc1ncnc2c1c(-c1ccc(NC(=O)Nc3ccc(CN4CCNCC45CC5)c(C(F)(F)F)c3)c(F)c1)cn2C1CC1` [Id-65, 1-(4-((4,7-diazaspiro[2,5]octan-4-yl)methyl)-3-(trifluoromethyl)phenyl)-3-(4-(4-amino-7-cyclopropyl-7H-pyrrolo[2,3-d]pyrimidin-5-yl)-2-fluorophenyl)urea]: the IC50 is below 150 nM.

For the compound `CN1CCN(Cc2ccc(NC(=O)Nc3ncc(-c4cn(C5CC5)c5ncnc(N)c45)cc3F)cc2C(F)(F)F)CC1` [Id-66], the IC50 is below 150 nM.

Take `CN1CCN(Cc2ncc(NC(=O)Nc3ccc(-c4cn(C5CC5)c5ncnc(N)c45)cc3F)cc2C(F)(F)F)CC1` [Id-67]: the IC50 was below 150 nM.

For the compound `CN(C)C1CCN(Cc2ccc(NC(=O)Nc3ccc(-c4cn(C5CC5)c5ncnc(N)c45)cc3F)cc2C(F)(F)F)CC1` [Id-68], the IC50 is below 150 nM.

Consider `CC1CN(C)CCN1Cc1ccc(NC(=O)Nc2ccc(-c3cn(C4CC4)c4ncnc(N)c34)cc2F)cc1C(F)(F)F` (stereo not drawn) [Id-69], for which the IC50 was in the range of 151 to 300 nM.

`CN1CCN(Cc2ccc(NC(=O)Nc3ccc(-c4cn(CCO)c5ncnc(N)c45)cc3F)cc2C(F)(F)F)CC1` [Id-70]: the IC50 is below 150 nM.

As for `Nc1ncnc2c1c(-c1ccc(NC(=O)Nc3ccc(CN4CCN(CCO)CC4)c(C(F)F)c3)c(F)c1)cn2C1CC1` [Id-71], the IC50 was below 150 nM.

The values above are taken from US20230210853A1 (Halia Therapeutics, Inc., priority 2020, published 2023).
